≈ marks a conversion by molar mass, not a printed value. Like-named read-outs stand apart in the source and are kept apart here.
Experiments:
[1] = test system: MRSA ATCC 43300; assay: Antimicrobial susceptibility (MIC), MRSA; assay type: cell-based; details: Staphylococcus aureus, read-out: MIC MRSA
Description: (§1) The susceptibility of bacterial strains S. aureus (ATCC 25923), E. coli (ATCC 25922) and P. aeruginosa (ATCC 27853) to antibiotics and compounds was determined according to previously reported protocols. Additional antimicrobial evaluation against MRSA (ATCC 43300) and C. albicans (ATCC 90028) was undertaken at the Community for Open Antimicrobial Drug Discovery at The University of Queensland (Australia) according to their standard protocols as reported previously.

[2] = test system: C. albicans ATCC 90028; assay: Antifungal susceptibility (MIC), C. albicans; assay type: cell-based; details: Candida albicans, ATCC90028, mean (n = 2)
Description: as §1

[3] = test system: P. aeruginosa ATCC 27853; assay: Antimicrobial susceptibility (MIC), P. aeruginosa; assay type: cell-based; details: Pseudomonas aeruginosa
Description: as §1

[4] = test system: P. aeruginosa ATCC 27853; assay: Antibiotic potentiation (MIC of antibiotics in the presence of synergizing compounds), P. aeruginosa; assay type: cell-based, Pseudomonas aeruginosa; details: concentration required to restore doxycycline activity at 2 µg/mL (4.5 µM) against P. aeruginosa ATCC 27853
[5] = test system: E. coli ATCC 25922; assay: Antimicrobial susceptibility (MIC), E. coli; assay type: cell-based; details: Escherichia coli, ATCC25922, mean (n = 3)
Description: as §1

[6] = test system: S. aureus ATCC 25923; assay: Antimicrobial susceptibility (MIC), S. aureus; assay type: cell-based, Staphylococcus aureus; details: for MIC: Staphylococcus aureus, ATCC25923, S. aureus ATCC 25923, mean (n = 3)
Description: as §1

[7] = Cytotoxicity assay HEK293; assay type: cell-based, human; details: human, HEK293 cells, mean (n = 2), read-out: Cyto. IC50 (concentration of compound at 50% cytotoxicity)
Description: Cytotoxicity assays were conducted according to previously reported protocols.

[8] = test system: human red blood cells; assay: Hemolytic assay; assay type: cell-based; details: mean (n = 2)
Description: Hemolysis assays were conducted according to previously reported protocols.

[9] = ATCC27853, mean (n = 3), read-out: MIC P. a

Row | SMILES | MIC ([1]; MRSA ATCC 43300, mean (n = 2)) [µM] | MIC [2] [µM] | MIC [3, 9] [µM] | Conc (µM) for Potentiation of doxycycline [4] [µM] | MIC [5] [µM] | MIC [6] [µM] | IC50 [7] [µM] | Hem. HC10 (concentration of compound at 10% hemolytic activity) [8] [µM] | S. aureus and MRSA MIC (range over both strains) ([6]; S. aureus ATCC 25923 and MRSA, summary range in text) [µM] | MIC ([3]; ATCC27853, read-out: observed MIC of doxycycline) [µg/mL] | MIC [1] [µM]
1 | O=C(NCCCNCCCCCCNCCCNC(=O)C(=O)c1c[nH]c2ccccc12)C(=O)c1c[nH]c2ccccc12.O=C(O)C(F)(F)F.O=C(O)C(F)(F)F [Compound 17a, N^1,N^6-Bis(3-(2-(1H-indol-3-yl)-2-oxoacetamido)propyl)hexane-1,6-diaminium 2,2,2-trifluoroacetate] | > 40 | > 40 | > 200 | 12.5 | 50 | 12.5 |  |  |  |  | 
2 | O=C(NCCCNCCCCCCCNCCCNC(=O)C(=O)c1c[nH]c2ccccc12)C(=O)c1c[nH]c2ccccc12.O=C(O)C(F)(F)F.O=C(O)C(F)(F)F [Compound 17b, N^1,N^7-Bis(3-(2-(1H-indol-3-yl)-2-oxoacetamido)propyl)heptane-1,7-diaminium 2,2,2-trifluoroacetate] | 39 | > 39 | > 200 | 100 | 25 | 25 | 31 | >39 |  |  | 
3 | Cc1ccc2[nH]cc(C(=O)C(=O)NCCCNCCCCCCNCCCNC(=O)C(=O)c3c[nH]c4ccc(C)cc34)c2c1.O=C(O)C(F)(F)F.O=C(O)C(F)(F)F [Compound 20a, N^1,N^6-Bis(3-(2-(5-methyl-1H-indol-3-yl)-2-oxoacetamido)propyl)hexane-1,6-diaminium 2,2,2-trifluoroacetate] | ≤ 0.3 | > 39 | 200 | 12.5 | 50 | 12.5 | > 39 |  |  |  | 
4 | Cc1ccc2[nH]cc(C(=O)C(=O)NCCCNCCCCCCCNCCCNC(=O)C(=O)c3c[nH]c4ccc(C)cc34)c2c1.O=C(O)C(F)(F)F.O=C(O)C(F)(F)F [Compound 20b, N^1,N^7-Bis(3-(2-(5-methyl-1H-indol-3-yl)-2-oxoacetamido)propyl)heptane-1,7-diaminium 2,2,2-trifluoroacetate] | ≤ 0.3 | > 38 | 200 | 12.5 | 50 | 6.25 |  | >38 |  |  | 
5 | Cc1ccc2[nH]cc(C(=O)C(=O)NCCCNCCCCCCCCNCCCNC(=O)C(=O)c3c[nH]c4ccc(C)cc34)c2c1.O=C(O)C(F)(F)F.O=C(O)C(F)(F)F [Compound 20c, N^1,N^8-Bis(3-(2-(5-methyl-1H-indol-3-yl)-2-oxoacetamido)propyl)octane-1,8-diaminium 2,2,2-trifluoroacetate] | 4.7 | > 37 | 800 | 400 | 12.5 | 3.12 | > 37 |  |  |  | 
6 | Cc1ccc2[nH]cc(C(=O)C(=O)NCCCNCCCCCCCCCCNCCCNC(=O)C(=O)c3c[nH]c4ccc(C)cc34)c2c1.O=C(O)C(F)(F)F.O=C(O)C(F)(F)F [Compound 20d, N^1,N^10-Bis(3-(2-(5-methyl-1H-indol-3-yl)-2-oxoacetamido)propyl)decane-1,10-diaminium 2,2,2-trifluoroacetate] | ≤ 0.28 | 9 | 800 | 400 | 12.5 | 3.12 | > 36 |  |  |  | 
7 | Cc1ccc2[nH]cc(C(=O)C(=O)NCCCNCCCCCCCCCCCCNCCCNC(=O)C(=O)c3c[nH]c4ccc(C)cc34)c2c1.O=C(O)C(F)(F)F.O=C(O)C(F)(F)F [Compound 20e, N^1,N^12-Bis(3-(2-(5-methyl-1H-indol-3-yl)-2-oxoacetamido)propyl)dodecane-1,12-diaminium 2,2,2-trifluoroacetate] |  | 2.2 | 800 | 400 | 12.5 | 3.12 |  | 2.0 |  |  | 
8 | COc1cccc2c(C(=O)C(=O)NCCCNCCCCCCCCNCCCNC(=O)C(=O)c3c[nH]c4c(OC)cccc34)c[nH]c12 [Compound 22c] | 4.5 (≈ 2.97 µg/mL) | > 36 | 800 | 200 | 200 (≈ 132 µg/mL) | 25 (≈ 16.5 µg/mL) |  | >36 |  |  | 
9 | COc1cccc2c(C(=O)C(=O)NCCCNCCCCCCCCCCCCNCCCNC(=O)C(=O)c3c[nH]c4c(OC)cccc34)c[nH]c12 [Compound 22e] | ≤ 0.26 | ≤ 0.26 | 800 | 400 | 12.5 (≈ 8.96 µg/mL) | 3.12 (≈ 2.24 µg/mL) |  | 0.93 | 0.26 to 3.125 |  | 
10 | Cc1cccc2c(C(=O)C(=O)NCCCNCCCCCCCCCCNCCCNC(=O)C(=O)c3c[nH]c4c(C)cccc34)c[nH]c12.O=C(O)C(F)(F)F.O=C(O)C(F)(F)F [Compound 23d, N^1,N^10-Bis(3-(2-(7-methyl-1H-indol-3-yl)-2-oxoacetamido)propyl)decane-1,10-diaminium 2,2,2-trifluoroacetate] | ≤ 0.28 | 18 | > 230 | 230 | 14.1 | 7.1 | > 36 |  |  |  | 
11 | O=C(N[C@H](CO)[C@H](O)c1ccc([N+](=O)[O-])cc1)C(Cl)Cl [chloramphenicol, reference compound] |  |  | > 200 |  | > 200 | 1.5 to 3 (≈ 0.485 to 0.969 µg/mL) |  |  |  |  | 
12 | C[C@H]1c2cccc(O)c2C(=O)C2=C(O)[C@]3(O)C(=O)C(C(N)=O)=C(O)[C@@H](N(C)C)[C@@H]3[C@@H](O)[C@@H]21 [doxycycline, reference compound] |  |  | 50 |  | 25 (≈ 11.1 µg/mL) |  |  |  |  | 20 | 
13 | CC[C@H]1OC(=O)[C@H](C)[C@@H](O[C@H]2C[C@@](C)(OC)[C@@H](O)[C@H](C)O2)[C@H](C)[C@@H](O[C@@H]2O[C@H](C)C[C@H](N(C)C)[C@H]2O)[C@](C)(O)C[C@@H](C)C(=O)[C@H](C)[C@@H](O)[C@]1(C)O [erythromycin, reference compound] |  |  | > 200 |  | > 200 |  |  |  |  |  | 
14 | OC(Cn1cncn1)(Cn1cncn1)c1ccc(F)cc1F [fluconazole, reference compound] |  | 0.4 (≈ 0.123 µg/mL) |  |  |  |  |  |  |  |  | 
15 | CN(C)c1ccc(O)c2c1C[C@H]1C[C@H]3[C@H](N(C)C)C(O)=C(C(N)=O)C(=O)[C@@]3(O)C(O)=C1C2=O [minocycline, reference compound] |  |  | 70 |  |  |  |  |  |  |  | 
16 | CCn1cc(C(=O)O)c(=O)c2ccc(C)nc21 [nalidixic acid, reference compound] |  |  | > 200 |  | > 200 |  |  |  |  |  | 
17 | [H]/N=C(/N)N[C@H]1[C@H](O)[C@@H](O)[C@H](O[C@@H]2O[C@@H](C)[C@](O)(C=O)[C@H]2O[C@@H]2O[C@@H](CO)[C@H](O)[C@@H](O)[C@@H]2NC)[C@@H](N/C(N)=N\[H])[C@@H]1O [streptomycin, reference compound] |  |  | 21.5 |  | 21.5 (≈ 12.5 µg/mL) | 21.5 (≈ 12.5 µg/mL) |  |  |  |  | 
18 | CC/C(=C(\c1ccccc1)c1ccc(OCCN(C)C)cc1)c1ccccc1 [tamoxifen, reference compound] |  |  |  |  |  |  | 24 |  |  |  | 
19 | CN[C@H](CC(C)C)C(=O)N[C@H]1C(=O)N[C@@H](CC(N)=O)C(=O)N[C@H]2C(=O)N[C@H]3C(=O)N[C@H](C(=O)N[C@H](C(=O)O)c4cc(O)cc(O)c4-c4cc3ccc4O)[C@H](O)c3ccc(c(Cl)c3)Oc3cc2cc(c3O[C@@H]2O[C@H](CO)[C@@H](O)[C@H](O)[C@H]2O[C@H]2C[C@](C)(N)[C@H](O)[C@H](C)O2)Oc2ccc(cc2Cl)[C@H]1O [vancomycin, reference compound] |  |  |  |  |  |  |  |  |  |  | 0.7 (≈ 1.01 µg/mL)
